From patent US20100150839A1, “Compositions and Methods for Modulating Cognitive Function” (Massachusetts Institute of Technology, priority 2005, published 2010)
Several values for one entry are separate records, joined by “and”; a condition that tells them apart may be missing. Equal values may be shown once. Entries after “also recorded” stand apart in the source; their conditions may differ. Read-outs that look alike come from different tables or passages of the source.

How the values were obtained:
[1] = test system: cultured primary hippocampal neurons; test: Translation reporter assay: EGFP-αCaMKII 3′ UTR reporter mRNA transfected into neurons; type: cell-based, rat
[2] = test system: cultured hippocampal neurons; test: Metabolic pulse labeling (35S-methionine incorporation) in cultured hippocampal neurons; type: cell-based, rat; conditions: for Increase in translation levels: hippocampal neuronal cultures, 35S metabolic labeling
[3] = test system: phospho-S6 (S235/S236); test: Western analysis of S6 phosphorylation; type: cell-based, rat
Description: (§1) Western analysis. Homogenates were prepared in cold RIPA buffer containing protease inhibitors and phosphatase inhibitors. Hippocampal neurons were homogenized 8 minutes after stimulation. Hippocampal slices were frozen on dry ice 10 minutes after tetanization, and the CA1 and CA3 fields were microdissected and homogenized. Western analysis was performed with rabbit polyclonal antisera against dually-phosphorylated ERK1/2, phospho-S6 (S235/S236), phospho-eIF4E (S209), and phospho-4E-BP (S65) (Cell Signaling). […] Therefore, since 4E-BP2 is the most abundantly expressed 4E-BP in the brain, it is likely that the results reflected 4E-BP2 levels and phosphorylation state. Blots were stripped and reprobed with antisera directed against total ERK1/2, S6, eIF4E, and 4E-BP (Cell Signaling). Results were quantified with ImageJ (NIH), calculated as the ratio of phosphorylated species to […], and then normalized to the untreated control condition Staining of total protein with Ponceau-S confirmed equal loading.

[4] = test system: phospho-eIF4E (S209); test: Western analysis of eIF4E phosphorylation; type: cell-based, rat
Description: as §1

[5] = test system: hippocampal brain slices; test: Metabolic labeling of newly synthesized proteins in hippocampal brain slices; type: cell-based
[6] = test system: dually-phosphorylated ERK1/2
[7] = test system: synaptoneurosomes
[8] = test system: phospho-4E-BP (S65); test: Western analysis of 4E-BP phosphorylation; type: cell-based, rat
Description: as §1

[9] = test system: hippocampal slices; type: cell-based, mice
[10] = hippocampal cultures, Western Blot
[11] = cultured hippocampal neurons (FIG. 10), agonist 10 uM or 50 uM
[12] = hippocampal brain slices (FIG. 9), agonist 10 uM or 50 uM

In the case of `NC(CCCP(=O)(O)O)C(=O)O` (centres unmarked) [AP5], the “Translation of EGFP-αCaMKII-A20 reporter mRNA” value ([1]; spontaneous neuronal activity, pretreatment with AP5 (100 μM) and DNQX (10 μM) together) is reported as “significantly inhibited”.

For `OCC(O)c1ccc(O)c(O)c1` (centres unmarked) [DHPG, 3,4-Dihydroxyphenylglycol], the “Increase in translation levels” value [2] was 50%+/−20%, the “Increase in phosphorylation of S6” value [3, 10] was 52%+/−18% and the “Increase in phosphorylation of eIF4E” value [4, 10] was 33%+/−3%.

For `O=[N+]([O-])c1cc2nc(O)c(O)nc2cc1[N+](=O)[O-]` [DNQX], the “Translation of EGFP-αCaMKII-A20 reporter mRNA” value [1] was “significantly inhibited”.

In the case of `Oc1cc2c(cc1O)C(c1ccccc1)CNCC2` (centres unmarked) [SKF38393], the “Translation of endogenous neuronal mRNAs (metabolic labeling of newly synthesized proteins)” value (“Translation of endogenous neuronal mRNAs” below) [2, 11] is reported as “stimulate translation” and the “Translation of endogenous neuronal mRNAs” value [5, 12] is reported as “stimulate translation”.

For `N#CC(=C(/N)Sc1ccccc1N)/C(C#N)=C(\N)Sc1ccccc1N` [U0126], the “Bulk translation of endogenous transcripts (35S-methionine incorporation)” value [2] was “strongly inhibited”, the “Effect of pretreatment on agonist-induced increases in neuronal protein synthesis” value [2] was “blocked” and the “Effect on DHPG-induced increase in translation rates” value [2] was “blocked”. For the same molecule, the “Effect on dopamine-induced increase in translation” value [2] was “blocked”, the “Effect on spaced depolarization-induced increase in translation” value [2] was “blocked” and the “ERK phosphorylation (phospho-ERK levels)” value [6] was “entirely abolished”. For the same molecule, the “Phosphorylation of ERK” value [6] was “significantly reduced”, the “Effect on DHPG-induced increase in phosphorylation of S6” value [3] was “blocked” and the “Phosphorylation of S6” value [3] was “significantly inhibited; also recorded: significantly reduced”. For the same molecule, the “Translation of endogenous synaptodendritic mRNAs” value [7] was “significantly reduced”, the “Phosphorylation of 4E-BP” value [8] was “significantly inhibited” and the “Effect of pretreatment on agonist-induced increases in neuronal protein synthesis” value [5] was “blocked”. For the same molecule, the “Effect on DHPG-induced increase in phosphorylation of eIF4E” value [4] was “blocked”, the “Phosphorylation of eIF4E” value [4] was “significantly inhibited; also recorded: significantly reduced” and the “Effect of concurrent treatment on stimulated EGFP-αCaMKII-A20 mRNA translation” value [1] was “significantly attenuated the effects of stimulation”. For the same molecule, the “Sensitivity of activity-induced reporter mRNA translation to inhibition” value [1] was “persisted after mutation of the CPEs” and the “Translation of EGFP-αCaMKII-A20 reporter mRNA, combined pretreatment” value [1] was “no additional inhibition”.

With `COc1ccc(C[C@H]2NC[C@H](O)[C@H]2OC(C)=O)cc1` [anisomycin] the “Additional decrement in L-LTP” value [9] was “did not produce any additional decrement in L-LTP”, the “Kinetic pattern of L-LTP inhibition” value [9] was “progressive inhibition of L-LTP” and the “L-LTP magnitude at 200 minutes” value [9] was 108±5% and 113±5%.

With `C[N+](C)(C)CCOC(N)=O` [carbachol] the “Translation of endogenous neuronal mRNAs” value [2, 11] was “stimulate translation” and the “Translation of endogenous neuronal mRNAs” value [5, 12] was “stimulate translation”.

`NCCc1ccc(O)c(O)c1` [dopamine] was tested, and the “Increase in translation levels” value [2] was 77%+/−26%.

`CC(C)NCC(O)c1ccc(O)c(O)c1` (centres unmarked) [isoproteronol] was tested, and the “Translation of endogenous neuronal mRNAs” value [2, 11] was “stimulate translation” and the “Translation of endogenous neuronal mRNAs” value [5, 12] was “stimulate translation”.

With `CCCN1CCC[C@@H]2Cc3n[nH]cc3C[C@H]21` [quinpirole] the “Translation of endogenous neuronal mRNAs” value [2] was “stimulate translation” and the “Translation of endogenous neuronal mRNAs” value [5] was “stimulate translation”.

Sp-cAMPS was tested, and the “Effect on translation (in words)” value [2] was “increased translation”.

actinomycin-D was tested, and the “Additional decrement in L-LTP” value [9] was “did not produce any additional decrement in L-LTP”, the “Kinetic pattern of L-LTP inhibition” value [9] was “distinct, delayed pattern of inhibition” and the “L-LTP magnitude at 60 min. post-tetanization” value [9] was 157±4% and 157±3%. The “L-LTP magnitude at 200 minutes” value [9] was 107±4% and 122±5% and the “Time after onset of tetanization during which L-LTP magnitude remained indistinguishable from untreated slices” value [9] was “approximately 75 minutes”.

B1: BDNF: brain derived neurotrophic factor; activates trkB (protein, UniProt P23560 19-247, looked up)
Neurotrophic factor BDNF …: APMKEANIRGQGGLAYPGVRTHGTLESVNGPKAGSRGLTSLADTFEHVIEELLDEDQKVRPNEENNKDADLYTSRVMLSSQVPLEPPLLFLLEEYKNYLDAANMSMRVRRHSDPARRGELSVCDSISEWVTAADKKTAVDMSGGTVTVLEKVPVSKGQLKQYFYETKCNPMGYTKEGCRGIDKRHWNSQCRTTQSYVRALTMDSKKRIGWRFIRIDTSCVCTLTIKRGR
With B1 the “Stimulation of EGFP-αCaMKII-A20 mRNA translation” value ([1]; 100 ng/mL BDNF for 4 hours, 40 μM bicuculline for 8 min., after U0126 preincubation and wash) was “significant increases”.
